Key:
Balb/c mice [1] = test: EPO levels in plasma by EPO MSD kit after IV injection of EPO mRNA LNP; format: in vivo
Description: (§1) 8-9 week old female Balb/c mice are utilized for bioluminescence-based ionizable lipid screening efforts. Mice are obtained from Jackson Laboratories (JAX Stock: 000651) and allowed to acclimate for one week prior to manipulations. Animals are placed under a heat lamp for a few minutes before introducing them to a restraining chamber. The tail is wiped with alcohol pads (Fisher Scientific) and 100 μL of a lipid nanoparticle composition descrbed above containing 10 ug total mRNA (5 ug Fluc+5 ug EPO) is injected intravenously using a 29 G insulin syringe (Covidien). Any resulting bleeding is stemmed using a sterile gauze pad (Fisher Scientific) and animals are placed back into their home cage. 4-6 hours post-dose, animals are injected with 200 μL of 15 mg/mL D-Luciferin (GoldBio) and placed in an isoflurane induction chamber set to deliver 2.5% isoflurane delivered at an oxygen flow rate of 1-2 liters per min. After 5 minutes of isoflurane exposure, mice are placed in set nose cones inside the IVIS Lumina LT imager (PerkinElmer). LivingImage software is utilized for imaging. Whole body bio-luminescence is captured at auto-exposure after which animals are removed from the IVIS and placed into a CO2 chamber for euthanasia. Cardiac puncture is performed on each animal after placing it in dorsal recumbency, and blood collection is performed using a 25 G insulin syringe (BD). Blood is collected in Lithium-Heparin coated tubes (Fisher Scientific) and immediately placed on ice. Once all blood samples are collected, tubes are spun at 2000 G for 10 minutes using a tabletop centrifuge and plasma is aliquoted into individual Eppendorf tubes (Fisher Scientific) and stored at −80 C for subsequent EPO quantification. EPO levels in plasma are determined using EPO MSD kit (Meso Scale Diagnostics).
(§2) 8-9 week old female Balb/c mice were utilized for bioluminescence-based ionizable lipid screening efforts. Mice were obtained from Jackson Laboratories (JAX Stock: 000651) and allowed to acclimate for one week prior to manipulations. Animals were placed under a heat lamp for a few minutes before introducing them to a restraining chamber. The tail was wiped with alcohol pads (Fisher Scientific) and, for each LNP composition descrbed above, 100 μL of a lipid nanoparticle composition descrbed above containing 10 μg total mRNA (5 μg Fluc+5 μg EPO, 5 μg Fluc+5 μg Cre, or 5 μg EGFP) was injected intravenously using a 29 G insulin syringe (Covidien).
(§3) 4-6 hours post-dose, animals were injected with 200 μL of 15 mg/mL D-Luciferin (GoldBio), and placed in set nose cones inside the IVIS Lumina LT imager (PerkinElmer). LivingImage software was utilized for imaging. Whole body bio-luminescence was captured at auto-exposure after which animals are removed from the IVIS and placed into a CO2 chamber for euthanasia. Cardiac puncture was performed on each animal after placing it in dorsal recumbency, and blood collection was performed using a 25 G insulin syringe (BD). Once all blood samples were collected, tubes are spun at 2000 G for 10 minutes using a tabletop centrifuge and plasma was aliquoted into individual Eppendorf tubes (Fisher Scientific) and stored at −80° C. for subsequent EPO quantification. EPO levels in plasma were determined using EPO MSD kit (Meso Scale Diagnostics).

Balb/c mice [2] = test: In-vivo bioluminescent imaging after IV injection of Fluc mRNA LNP; conditions: IV; for Bioluminescence (IV) Liver / Bioluminescence (IV) Lung / Bioluminescence (IV) Spleen / Bioluminescence (IV) Whole Body / Spleen: Liver Ratio: Example 5 LNP (DOPE 35:16:46.5:2.5), 5 μg FLUC + 5 μg EPO; for Bioluminescence (IV) Liver / Bioluminescence (IV) Lung / Bioluminescence (IV) Spleen / Bioluminescence (IV) Whole Body / Bioluminescence Liver / Bioluminescence Lung / Bioluminescence Spleen: 4-6 hours post-dose; for Spleen: Liver Ratio: ratio of bioluminescence; for Bioluminescence Liver / Bioluminescence Lung / Bioluminescence Spleen: 5 ug Fluc+5 ug EPO mRNA
Description: as §1, §2, §3

[3] = TNS (pKa) assay, apparent LNP pKa; format: physicochemical; conditions: for pKa (TNS): Example 5 LNP lipid:DOPE:Plant Cholesterol:DMPE-PEG2k 35:16:46.5:2.5, FLUC/EPO 1:1 mRNA, N:P 6:1
Description: (protocol adapted from: A Novel Amino Lipid Series for mRNA Delivery: Improved Endosomal Escape and Sustained Pharmacology and Safety in Non-human Primates, Sabnis, Staci et al., Molecular Therapy, Volume 26, Issue 6, 1509-1519) 20 buffers (10 mM sodium phosphate, 10 mM sodium borate, 10 mM sodium citrate, and 150 mM sodium chloride, in Distilled Water) of unique pH values ranging from 3.0-12.0 were prepared using 1M sodium hydroxide and 1M hydrochloric acid. 3.25 uL of LNPs (0.04 mg/mL mRNA, in PBS) were incubated with 2 μL of TNS reagent (0.3 mM, in DMSO) and 90 μL of buffer for each pH value (described above) in a 96-well black-walled plate. Each pH condition was performed in triplicate wells. The TNS fluorescence was measured using a Biotek Cytation Plate reader at excitation/emission wavelengths of 321/445 nm. The fluorescence values were then plotted and fit using a 4-parameter sigmoid curve. From the fit, the pH value yielding the half-maximal fluorescence was calculated and reported as the apparent LNP pKa value.
For pKa measurement, a […] assay was conducted according to those described in Sabnis et al., Molecular Therapy, 26(6):1509-19), which is incorporated herein by reference in its entirety. Briefly, 20 buffers (10 mM sodium phosphate, 10 mM sodium borate, 10 mM sodium citrate, and 150 mM sodium chloride, in distilled Water) of unique pH values ranging from 3.0-12.0 were prepared using 1M sodium hydroxide and 1M hydrochloric acid. 3.25 μL of a LNP composition (0.04 mg/mL mRNA, in PBS) was incubated with 2 μL of TNS reagent (0.3 mM, in DMSO) and 90 μL of buffer for each pH value (described above) in a 96-well black-walled plate. Each pH condition was performed in triplicate wells. The TNS fluorescence was measured using a Biotek Cytation Plate reader at excitation/emission wavelengths of 321/445 nm. The fluorescence values were then plotted and fit using a 4-parameter sigmoid curve. From the fit, the pH value yielding the half-maximal fluorescence was calculated and reported as the apparent LNP pKa value.

[4] = mRNA encapsulation efficiency, Quant-iT RiboGreen RNA Assay; format: physicochemical; conditions: Example 5 LNP lipid:DOPE:Plant Cholesterol:DMPE-PEG2k 35:16:46.5:2.5, FLUC/EPO 1:1 mRNA, N:P 6:1
Source text: (§4) All other compositions (i.e., compositions of MC3 (a commercially available ionizable lipid having a chemical name of (6Z,9Z,28Z,31Z)-heptatriacont-6,9,28,31-tetraene-19-yl 4-(dimethylamino)butanoate, and compositions of novel ionizable lipids 7669, 7671, 7668, 767, 7650) are composed of ionizable lipid:structural lipid:sterol:PEG-lipid (SDA lipid #:DSPC:cholesterol:14:0 PEG2000 PE) at a molar ratio of […], respectively. Lipids are solubilized in ethanol. Compositions are then handled as above, except the formulations are maintained at ionizable lipid to mRNA N:P ratio of 6:1. The lipid mix and mRNA solution are mixed at a 1:3 ratio by volume, respectively, on a NanoAssemblr Ignite (Precision Nanosystems) at a total flow rate of 9 mL/min. Resulting compositions are then loaded into Slide-A-Lyzer G2 dialysis cassettes (10 k MWCO) and dialyzed in 200 times sample volume of 1×PBS for 4 hrs at room temp with gentle stirring. The PBS is refreshed, and the compositions are further dialyzed for at least 14 hrs at 4° C. with gentle stirring. The dialyzed compositions are then collected and concentrated by centrifugation at 2000×g using Amicon Ultra centrifugation filters (100 k MWCO). Concentrated particles are characterized for size, polydispersity, and particle concentration using Zetasizer Ultra (Malvern Panalytical) and for mRNA encapsulation efficiency using Quant-iT RiboGreen RNA Assay Kit (ThermoFisher Scientific).
(§5) The lipid mix and mRNA solution were mixed at a 1:3 ratio by volume, respectively, on the NanoAssemblr Ignite (Precision Nanosystems) at a total flow rate of 9 mL/min. Resulting formulations were then loaded into Slide-A-Lyzer G2 dialysis cassettes (10 k MWCO) and dialyzed in 200 times sample volume of 1×PBS for 2 hrs at room temperature. The PBS was refreshed, and the formulations were further dialyzed for at least 14 hrs at 4° C. with gentle stirring. The dialyzed formulations were then collected and concentrated by centrifugation at 3000×g using Amicon Ultra centrifugation filters (100 k MWCO). The concentrated formulations were characterized for size, polydispersity, and particle concentration using Zetasizer Ultra (Malvern Panalytical) and for mRNA encapsulation efficiency using Quant-iT RiboGreen RNA Assay Kit (ThermoFisher Scientific).
(§6) For each LNP composition, the lipid mix and mRNA solution were mixed at a 1:3 ratio by volume, respectively, on a NanoAssemblr Ignite (Precision Nanosystems) at a total flow rate of 9 mL/min. The resulting compositions were then loaded into Slide-A-Lyzer G2 dialysis cassettes (10 k MWCO) and dialyzed in 200 times sample volume of 1×PBS for 2 hours at room temperature with gentle stirring. The PBS was refreshed, and the compositions were further dialyzed for at least 14 hours at 4° C. with gentle stirring. The dialyzed compositions were then collected and concentrated by centrifugation at 3000×g using Amicon Ultra centrifugation filters (100 k MWCO). The concentrated particles were characterized for size, polydispersity, and particle concentration using Zetasizer Ultra (Malvern Panalytical) and for mRNA encapsulation efficiency using Quant-iT RiboGreen RNA Assay Kit (ThermoFisher Scientific).

[5] = LNP size and polydispersity, Zetasizer Ultra; format: physicochemical; conditions: Example 5 LNP lipid:DOPE:Plant Cholesterol:DMPE-PEG2k 35:16:46.5:2.5, FLUC/EPO 1:1 mRNA, N:P 6:1
Source text: as §4, §5, §6

[6] = Example 5 LNP (DOPE 35:16:46.5:2.5), 5 μg FLUC + 5 μg EPO
[7] = LNP lipid:DOPE:Plant Chol.:DMPE-PEG2k 35:16:46.5:2.5 (Table 1)
[8] = LNP lipid:DSPC:Plant Chol.:DMPE-PEG2k 50:10:38.5:1.5

Row | SMILES | hEPO (Balb/c mice [1]; [6]) | Bioluminescence (IV) Liver (Balb/c mice [2]) | Bioluminescence (IV) Lung (Balb/c mice [2]) | Bioluminescence (IV) Spleen (Balb/c mice [2]) | Bioluminescence (IV) Whole Body (Balb/c mice [2]) | Spleen: Liver Ratio (Balb/c mice [2]) | pKa (TNS) [3] | % EE [4] [%] | PDI [5] | Size (nm) [5] [nm] | hEPO (Balb/c mice [1]; LNP lipid:DOPE:Plant Chol.:DMPE-PEG2k 35:16:46.5:2.5 (Table 1), 5 ug Fluc+5 ug EPO mRNA) | hEPO (Balb/c mice [1]; LNP lipid:DSPC:Plant Chol.:DMPE-PEG2k 50:10:38.5:1.5, 5 ug Fluc+5 ug EPO mRNA) | Bioluminescence Liver (Balb/c mice [2]; [7]) | Bioluminescence Lung (Balb/c mice [2]; [7]) | Bioluminescence Spleen (Balb/c mice [2]; [7]) | Bioluminescence Liver (Balb/c mice [2]; [8]) | Bioluminescence Lung (Balb/c mice [2]; [8]) | Bioluminescence Spleen (Balb/c mice [2]; [8]) | pKa ([3]; LNP ionizable lipid:DOPE:Plant Chol.:DMPE-PEG2k 35:16:46.5:2.5 (Table 1)) | pKa ([3]; LNP ionizable lipid:DSPC:Plant Chol.:DMPE-PEG2k 50:10:38.5:1.5)
1 | CCCCCCCCCCCOC(=O)CCCCCN(CCCCCCCC(=O)OC(CCCCCCCC)CCCCCCCC)CCNC(=O)CCCC(=O)NCCN(CCCCCCCC(=O)OC(CCCCCCCC)CCCCCCCC)CCCCCC(=O)OCCCCCCCCCCC [Compound 2273, 1-octylnonyl 8-[2-[[5-[2-[[8-(1-octylnonoxy)-8-oxo-octyl]-(6-oxo-6-undecoxy-hexyl)amino]ethylamino]-5-oxo-pentanoyl]amino]ethyl-(6-oxo-6-undecoxyhexyl)amino]octanoate] | 8.5E+05 | 7.6E+06 | 1.0E+04 | 5.7E+05 | 4.2E+07 | 0.080 | 6.57 | – | – | – | – | – | – | – | – | – | – | – | – | –
2 | CCCCCCCCC(CCCCCCCC)OC(=O)CCCCCCCN(CCCCCCCOC(=O)C(CCCCCCCC)CCCCCCCC)CCNC(=O)CCC(=O)NCCN(CCCCCCCOC(=O)C(CCCCCCCC)CCCCCCCC)CCCCCCCC(=O)OC(CCCCCCCC)CCCCCCCC [Compound 2323, 7-[2-[[4-[2-[7-(2-octyldecanoyloxy)heptyl-[8-(1-octylnonoxy)-8-oxo-octyl]amino]ethylamino]-4-oxo-butanoyl]amino]ethyl-[8-(1-octylnonoxy)-8-oxo-octyl]amino]heptyl 2-octyldecanoate] | 3.1E+06 | 3.2E+07 | 7.7E+03 | 8.7E+05 | 2.1E+08 | 0.027 | – | 90.7 | 0.14 | 91.0 | – | – | – | – | – | – | – | – | – | –
3 | CCCCCCCCCCCOC(=O)CCCCCN(CCCCCCCC(=O)OC(CCCCCCCC)CCCCCCCC)CCNC(=O)CCC(=O)NCCN(CCCCCCCC(=O)OC(CCCCCCCC)CCCCCCCC)CCCCCC(=O)OCCCCCCCCCCC [Compound 2221, 1-octylnonyl 8-[2-[[4-[2-[[8-(1-octylnonoxy)-8-oxo-octyl]-(6-oxo-6-undecoxy-hexyl)amino]ethylamino]-4-oxo-butanoyl]amino]ethyl-(6-oxo-6-undecoxy-hexyl)amino]octanoate] | 4.7E+05 | 3.0E+06 | 1.9E+03 | 2.7E+05 | 2.2E+07 | 0.082 | 6.36 | – | – | – | 4.71E+05 | 4.46E+05 | 3.05E+06 | 1.88E+03 | 2.68E+05 | 2.94E+06 | 5.09E+03 | 1.23E+06 | 6.36 | 6.29

From US20250051263A1, “NOVEL IONIZABLE LIPIDS AND LIPID NANOPARTICLES AND METHODS OF USING THE SAME” (Sail Biomedicines, Inc., priority 2021, published 2025)
